Test results: ChEMBL document CHEMBL3638677, “Bicyclic compounds and their uses as dual c-SRC/JAK inhibitors” (2015)
pIC50: −log10 of the molar value.

Legend:
[1] = biological target: Tyrosine-protein kinase JAK2 (Homo sapiens, UniProt O60674); assay: (§1) TR-FRET Assay: Compounds were screened in the TR-FRET assay for JAK2 and c-Src kinase inhibition. Ultra light poly GT (Perkin Elmer) was used as the substrate for JAK2 and c-Src with the ATP concentration of 10 μM and 50 μM, respectively.
[2] = biological target: Proto-oncogene tyrosine-protein kinase Src (Homo sapiens, UniProt P12931); assay: as §1, with “respectively. The Eu-labelled anti-phospho tyrosine antibody (Perkin Elmer) was added at 1 nM and the fluorescence emission at 615 nm and 665 nm was measured with an excitation wavelength of 340 nm.” for “respectively.”
Chain of Proto-oncogene tyrosine-protein kinase Src (P12931 2-536 limits assumed): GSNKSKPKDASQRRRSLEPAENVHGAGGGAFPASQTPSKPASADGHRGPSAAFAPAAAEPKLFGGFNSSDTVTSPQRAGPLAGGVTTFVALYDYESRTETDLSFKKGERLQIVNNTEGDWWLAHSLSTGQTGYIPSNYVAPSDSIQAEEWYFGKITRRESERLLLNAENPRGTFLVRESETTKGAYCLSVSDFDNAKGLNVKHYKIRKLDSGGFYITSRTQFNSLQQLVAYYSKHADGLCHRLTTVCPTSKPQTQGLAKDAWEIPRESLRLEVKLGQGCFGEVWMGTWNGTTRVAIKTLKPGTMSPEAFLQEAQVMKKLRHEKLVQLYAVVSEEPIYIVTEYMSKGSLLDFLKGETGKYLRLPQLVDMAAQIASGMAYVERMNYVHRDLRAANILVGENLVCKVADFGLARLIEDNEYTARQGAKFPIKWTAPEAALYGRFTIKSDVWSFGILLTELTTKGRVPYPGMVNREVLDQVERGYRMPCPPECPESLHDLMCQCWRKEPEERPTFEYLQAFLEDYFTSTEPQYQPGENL

Chain of Tyrosine-protein kinase JAK2 (O60674 whole entry): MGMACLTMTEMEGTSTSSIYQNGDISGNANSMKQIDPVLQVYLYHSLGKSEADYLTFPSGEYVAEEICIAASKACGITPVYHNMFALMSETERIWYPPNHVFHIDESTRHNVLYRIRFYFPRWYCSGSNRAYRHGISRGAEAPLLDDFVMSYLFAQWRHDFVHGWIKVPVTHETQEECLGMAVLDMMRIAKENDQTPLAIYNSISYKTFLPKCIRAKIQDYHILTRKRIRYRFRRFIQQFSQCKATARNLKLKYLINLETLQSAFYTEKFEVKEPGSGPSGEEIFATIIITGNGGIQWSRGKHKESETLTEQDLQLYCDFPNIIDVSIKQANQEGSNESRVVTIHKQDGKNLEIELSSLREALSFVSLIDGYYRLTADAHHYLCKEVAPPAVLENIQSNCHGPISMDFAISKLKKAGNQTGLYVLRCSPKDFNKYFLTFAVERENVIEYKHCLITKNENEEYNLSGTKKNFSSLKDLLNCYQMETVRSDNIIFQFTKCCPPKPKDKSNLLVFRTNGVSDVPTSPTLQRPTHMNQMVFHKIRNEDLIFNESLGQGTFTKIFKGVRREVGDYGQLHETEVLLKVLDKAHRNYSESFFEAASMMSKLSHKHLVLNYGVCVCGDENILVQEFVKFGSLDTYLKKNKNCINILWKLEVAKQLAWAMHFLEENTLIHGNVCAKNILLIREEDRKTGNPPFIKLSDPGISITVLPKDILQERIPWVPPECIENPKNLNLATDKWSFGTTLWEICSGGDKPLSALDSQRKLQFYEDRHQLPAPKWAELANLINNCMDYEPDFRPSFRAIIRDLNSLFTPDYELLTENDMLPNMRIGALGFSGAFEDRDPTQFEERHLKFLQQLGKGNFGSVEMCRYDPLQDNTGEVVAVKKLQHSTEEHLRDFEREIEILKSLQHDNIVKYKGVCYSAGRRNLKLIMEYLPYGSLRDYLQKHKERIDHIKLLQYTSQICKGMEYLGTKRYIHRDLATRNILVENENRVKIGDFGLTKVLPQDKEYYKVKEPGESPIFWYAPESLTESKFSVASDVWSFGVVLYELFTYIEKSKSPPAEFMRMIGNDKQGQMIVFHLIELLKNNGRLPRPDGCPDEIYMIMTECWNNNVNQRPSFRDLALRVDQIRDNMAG

SMILES | pIC50 [1] | pIC50 [2]
Cc1ccc(NC(=O)c2cccc(C(C)(C)C)c2)cc1N1CCc2nc(Nc3ccc(N4CCN(C)CC4)cc3)ncc2C1=O | 7.35 | 7.55
Cc1ccc(NC(=O)c2cccc(C(F)(F)F)c2)cc1N1CCc2nc(Nc3ccc(C(=O)NC4CCN(C)CC4)cc3)ncc2C1 | 8.15 | 8.70
CN1CCN(c2ccc(Nc3ncc4c(n3)CCN(c3cc(NC(=O)c5cc(F)cc(C(F)(F)F)c5)ccc3Cl)C4=O)cc2)CC1 | 8.05 | 
CN1CCN(c2ccc(Nc3ncc4c(n3)CCN(c3cc(NC(=O)c5cccc(C(F)(F)F)c5)ccc3Cl)C4)cc2)CC1 | 8.06 | 
